Assay results as given in PMC7413254 (Nature Communications, 2020).

Experiments:
Format in all cases: cell-based
PfCRT^Ecu1110 [1] = target: T1, PfCRT^Ecu1110 (Plasmodium falciparum, UniProt Q9N623, A220S/I356L/K76T/N326D); assay: cell-based; details: for PfCRT-mediated [3H]CQ transport, trans-stimulation (% PfCRTEcu1110 control): PfCRTEcu1110 oocytes, normalised to oocyte type control; for [3H]CQ transport (% PfCRTDd2 control), trans-stimulation, PfCRTEcu1110: PfCRT-mediated component (background subtracted), sheet title says normalised to PfCRTDd2 control, mean ± SEM, SEM
T1 sequence (Q9N623 whole entry A220S/I356L/K76T/N326D): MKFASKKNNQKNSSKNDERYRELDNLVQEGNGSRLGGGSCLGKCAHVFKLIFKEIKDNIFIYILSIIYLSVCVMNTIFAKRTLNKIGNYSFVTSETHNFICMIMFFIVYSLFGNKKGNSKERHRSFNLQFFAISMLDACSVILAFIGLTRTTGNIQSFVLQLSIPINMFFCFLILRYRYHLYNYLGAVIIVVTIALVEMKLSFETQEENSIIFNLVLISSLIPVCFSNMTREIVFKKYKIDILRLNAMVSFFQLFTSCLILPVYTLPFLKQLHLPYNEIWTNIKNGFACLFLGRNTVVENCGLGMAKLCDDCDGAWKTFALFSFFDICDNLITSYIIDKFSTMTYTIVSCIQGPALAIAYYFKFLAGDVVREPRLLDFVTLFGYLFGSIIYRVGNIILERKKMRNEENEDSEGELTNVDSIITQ
Outline: (§1)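 Transport measured in Xenopus oocytes expressing the transporters, 1.5 h at 27.5 °C in ND96 pH 5.5 unless noted. For trans-stimulation, VF-6 injected in 25 nL ND96 at pH 5.0–7.0 or Na^+-free (choline) buffer; intracellular levels based on ~400 nL oocyte volume. Ten oocytes per treatment, ≥4 experiments.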

PfCRT^3D7 = PfCRT^3D7 (Plasmodium falciparum, UniProt Q8IBZ9); assay: cell-based; details: PfCRT3D7 oocytes, normalised to oocyte type control
PfCRT^3D7, sequence (Q8IBZ9 59-398): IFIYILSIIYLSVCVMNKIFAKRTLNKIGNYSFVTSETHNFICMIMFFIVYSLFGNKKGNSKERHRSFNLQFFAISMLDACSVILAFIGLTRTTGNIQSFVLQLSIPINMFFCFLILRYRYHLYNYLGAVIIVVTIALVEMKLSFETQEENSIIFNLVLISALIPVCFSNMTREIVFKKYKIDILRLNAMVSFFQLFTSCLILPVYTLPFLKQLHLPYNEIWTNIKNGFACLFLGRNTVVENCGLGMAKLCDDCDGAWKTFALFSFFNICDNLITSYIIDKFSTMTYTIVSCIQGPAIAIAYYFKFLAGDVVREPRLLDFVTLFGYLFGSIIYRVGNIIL
Outline: as §1

PfCRT^Dd2 [2] = target: T2, PfCRT^Dd2 (Plasmodium falciparum, UniProt Q9N623, A220S/I356T/K76T/M74I/N326S/N75E/Q271E/R371I); assay: cell-based; details: for PfCRT-mediated [3H]CQ transport, trans-stimulation (% PfCRTDd2 control): PfCRTDd2 oocytes, normalised to oocyte type control; for [3H]CQ transport (% PfCRTDd2 control), trans-stimulation, PfCRTDd2: PfCRT-mediated component (background subtracted), mean ± SEM, SEM
T2 sequence (Q9N623 whole entry A220S/I356T/K76T/M74I/N326S/N75E/Q271E/R371I): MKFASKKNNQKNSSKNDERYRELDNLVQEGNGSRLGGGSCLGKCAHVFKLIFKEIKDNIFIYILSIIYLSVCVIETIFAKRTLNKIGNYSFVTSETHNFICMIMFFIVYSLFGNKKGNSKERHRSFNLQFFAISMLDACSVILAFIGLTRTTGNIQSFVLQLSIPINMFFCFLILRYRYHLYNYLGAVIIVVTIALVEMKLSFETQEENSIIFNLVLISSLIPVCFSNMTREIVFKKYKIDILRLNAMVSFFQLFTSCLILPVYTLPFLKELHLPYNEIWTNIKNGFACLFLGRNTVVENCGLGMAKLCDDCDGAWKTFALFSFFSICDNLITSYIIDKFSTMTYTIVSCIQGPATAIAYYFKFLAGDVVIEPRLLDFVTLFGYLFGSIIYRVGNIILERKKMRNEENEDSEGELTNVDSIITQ
Outline: as §1

PfCRT^Ecu1110 [3] = target: T1, PfCRT^Ecu1110; assay: [3H]CQ uptake into Xenopus oocytes, cis-inhibition by unlabelled solute; details: for PfCRT-mediated [3H]CQ transport, cis-inhibition (% PfCRTEcu1110 control): PfCRTEcu1110 oocytes, background [3H]CQ accumulation subtracted, normalised to oocyte type control; for [3H]CQ transport (% PfCRTEcu1110 control), cis-inhibition, PfCRTEcu1110: PfCRT-mediated component (background subtracted), sheet title says normalised to PfCRTDd2 control, mean ± SEM, SEM
Outline: (§2)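 Assay buffer ND96 (10 mM MES, 10 mM Tris-base) held at pH 5.5 to mimic vacuole lumen; uptake measured inward from this acidic medium over 1.5 h at 27.5 °C.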

PfCRT^Dd2 [4] = target: T2, PfCRT^Dd2; assay: as above; details: PfCRTDd2 oocytes, background [3H]CQ accumulation subtracted, normalised to oocyte type control
Outline: as §2

[5] = [test solute]i = 5 mM (intracellular)
[6] = [test solute]i = 45 mM (intracellular; 30 mM for some solutes due to solubility)
[7] = [test solute]i = 5 mM (injected)
[8] = [test solute]i = 45 mM (30 mM for some solutes due to solubility)

| Substance | PfCRT-mediated [3H]CQ transport, trans-stimulation (% PfCRTEcu1110 control) (PfCRT^Ecu1110 [1]; [5]) | PfCRT-mediated [3H]CQ transport, trans-stimulation (% PfCRTEcu1110 control) (PfCRT^Ecu1110 [1]; [6]) | [3H]CQ transport (% PfCRTDd2 control), trans-stimulation, PfCRTEcu1110 (PfCRT^Ecu1110 [1]; [7]) | [3H]CQ transport (% PfCRTDd2 control), trans-stimulation, PfCRTEcu1110 (PfCRT^Ecu1110 [1]; [8]) | PfCRT-mediated [3H]CQ transport, trans-stimulation (% PfCRT3D7 control) (PfCRT^3D7; [5]) | PfCRT-mediated [3H]CQ transport, trans-stimulation (% PfCRT3D7 control) (PfCRT^3D7; [6]) | PfCRT-mediated [3H]CQ transport, trans-stimulation (% PfCRTDd2 control) (PfCRT^Dd2 [2]; [5]) | PfCRT-mediated [3H]CQ transport, trans-stimulation (% PfCRTDd2 control) (PfCRT^Dd2 [2]; [6]) | [3H]CQ transport (% PfCRTDd2 control), trans-stimulation, PfCRTDd2 (PfCRT^Dd2 [2]; [7]) | [3H]CQ transport (% PfCRTDd2 control), trans-stimulation, PfCRTDd2 (PfCRT^Dd2 [2]; [8]) | PfCRT-mediated [3H]CQ transport, cis-inhibition (% PfCRTEcu1110 control) (PfCRT^Ecu1110 [3]; [test solute] = 0.5 mM) | PfCRT-mediated [3H]CQ transport, cis-inhibition (% PfCRTEcu1110 control) (PfCRT^Ecu1110 [3]; [test solute] = 1 mM) | PfCRT-mediated [3H]CQ transport, cis-inhibition (% PfCRTEcu1110 control) (PfCRT^Ecu1110 [3]; [test solute] = 2 mM) | [3H]CQ transport (% PfCRTEcu1110 control), cis-inhibition, PfCRTEcu1110 (PfCRT^Ecu1110 [3]; [test solute] = 2 mM) | PfCRT-mediated [3H]CQ transport, cis-inhibition (% PfCRTDd2 control) (PfCRT^Dd2 [4]; [test solute] = 0.5 mM) | PfCRT-mediated [3H]CQ transport, cis-inhibition (% PfCRTDd2 control) (PfCRT^Dd2 [4]; [test solute] = 1 mM) | PfCRT-mediated [3H]CQ transport, cis-inhibition (% PfCRTDd2 control) (PfCRT^Dd2 [4]; [test solute] = 2 mM) | [3H]CQ transport (% PfCRTEcu1110 control), cis-inhibition, PfCRTEcu1110 (PfCRT^Ecu1110 [3]; [test solute] = 1 mM) | [3H]CQ transport (% PfCRTEcu1110 control), cis-inhibition, PfCRTEcu1110 (PfCRT^Ecu1110 [3]; [test solute] = 0.5 mM) |
| --- | --- | --- | --- | --- | --- | --- | --- | --- | --- | --- | --- | --- | --- | --- | --- | --- | --- | --- | --- |
| PHFDLS [PS-6] | 121 ± 4.5 % PfCRTEcu1110 control | 138 ± 4.6 % PfCRTEcu1110 control | 37 ± 1.4 % PfCRTEcu1110 control | 43 ± 1.3 % PfCRTEcu1110 control | 140 ± 4.3 % PfCRT3D7 control | 188 ± 4.5 % PfCRT3D7 control | 96 ± 4.7 % PfCRTDd2 control | 95 ± 4.6 % PfCRTDd2 control | 96 ± 4.7 % PfCRTDd2 control | 95 ± 4.6 % PfCRTDd2 control | 41 ± 2.5 % PfCRTEcu1110 control | 33 ± 1.7 % PfCRTEcu1110 control | 21 ± 1.6 % PfCRTEcu1110 control | 7.0 ± 0.01 % PfCRTEcu1110 control | 46 ± 1.0 % PfCRTDd2 control | 32 ± 1.1 % PfCRTDd2 control | 17 ± 0.3 % PfCRTDd2 control |  |  |
| PNALS [PS-5, host-derived peptide upstream of PL-4] | 127 ± 2.6 % PfCRTEcu1110 control | 136 ± 4.6 % PfCRTEcu1110 control | 38 ± 1.5 % PfCRTEcu1110 control | 41 ± 2.2 % PfCRTEcu1110 control | 131 ± 6.2 % PfCRT3D7 control | 180 ± 3.6 % PfCRT3D7 control | 99 ± 4.6 % PfCRTDd2 control | 96 ± 4.1 % PfCRTDd2 control | 99 ± 4.6 % PfCRTDd2 control | 96 ± 4.1 % PfCRTDd2 control | 50 ± 2.5 % PfCRTEcu1110 control | 42 ± 1.8 % PfCRTEcu1110 control | 29 ± 1.1 % PfCRTEcu1110 control | 9.0 ± 0.01 % PfCRTEcu1110 control |  | 30 ± 2.7 % PfCRTDd2 control | 19 ± 0.3 % PfCRTDd2 control | 13 ± 0.1 % PfCRTEcu1110 control |  |
| PPVQA [PA-5] | 91 ± 5.7 % PfCRTEcu1110 control | 97 ± 4.4 % PfCRTEcu1110 control | 28 ± 1.7 % PfCRTEcu1110 control | 29 ± 1.4 % PfCRTEcu1110 control | 133 ± 4.6 % PfCRT3D7 control | 178 ± 5.2 % PfCRT3D7 control | 100 ± 4.2 % PfCRTDd2 control | 95 ± 5.6 % PfCRTDd2 control | 100 ± 4.2 % PfCRTDd2 control | 95 ± 5.6 % PfCRTDd2 control | 59 ± 2.1 % PfCRTEcu1110 control | 41 ± 1.4 % PfCRTEcu1110 control | 28 ± 0.5 % PfCRTEcu1110 control | 9.0 ± 0.05 % PfCRTEcu1110 control | 39 ± 1.1 % PfCRTDd2 control | 31 ± 3.1 % PfCRTDd2 control | 19 ± 1.2 % PfCRTDd2 control | 13 ± 0.5 % PfCRTEcu1110 control | 19 ± 0.3 % PfCRTEcu1110 control |
| SHCLLVT [ST-7] | 130 ± 3.2 % PfCRTEcu1110 control | 136 ± 4.3 % PfCRTEcu1110 control | 39 ± 1.3 % PfCRTEcu1110 control | 41 ± 2.2 % PfCRTEcu1110 control | 140 ± 4.3 % PfCRT3D7 control | 192 ± 4.6 % PfCRT3D7 control | 97 ± 3.2 % PfCRTDd2 control | 113 ± 2.0 % PfCRTDd2 control | 97 ± 3.2 % PfCRTDd2 control | 113 ± 2.0 % PfCRTDd2 control | 39 ± 1.1 % PfCRTEcu1110 control | 31 ± 2.5 % PfCRTEcu1110 control | 19 ± 1.4 % PfCRTEcu1110 control | 6.0 ± 0.02 % PfCRTEcu1110 control | 38 ± 1.0 % PfCRTDd2 control | 27 ± 1.3 % PfCRTDd2 control | 12 ± 0.1 % PfCRTDd2 control | 10 ± 0.1 % PfCRTEcu1110 control | 12 ± 0.5 % PfCRTEcu1110 control |
| TPPVQ [TQ-5] | 96 ± 3.5 % PfCRTEcu1110 control | 96 ± 2.3 % PfCRTEcu1110 control | 29 ± 1.6 % PfCRTEcu1110 control | 30 ± 1.6 % PfCRTEcu1110 control | 94 ± 3.5 % PfCRT3D7 control | 96 ± 4.2 % PfCRT3D7 control | 96 ± 3.2 % PfCRTDd2 control | 97 ± 4.5 % PfCRTDd2 control | 96 ± 3.2 % PfCRTDd2 control | 97 ± 4.5 % PfCRTDd2 control | 56 ± 3.1 % PfCRTEcu1110 control | 49 ± 2.6 % PfCRTEcu1110 control | 42 ± 2.4 % PfCRTEcu1110 control | 13 ± 0.1 % PfCRTEcu1110 control | 50 ± 2.1 % PfCRTDd2 control | 30 ± 2.1 % PfCRTDd2 control | 15 ± 0.3 % PfCRTDd2 control | 15 ± 0.1 % PfCRTEcu1110 control |  |
